The values that follow come from patent publication EP2647379A1, “Combined use of a steroid sulfatase inhibitor for the treatment of endometriosis” (PregLem S.A., priority 2012, dated 2013).

Molecules are shown by their SMILES. Like-named read-outs stand apart in the source and are kept apart here. Bounds are passed on as bounds.

The target in data set [1] is T1, STS (Homo sapiens, UniProt P08842).
T1 sequence (P08842 22-583): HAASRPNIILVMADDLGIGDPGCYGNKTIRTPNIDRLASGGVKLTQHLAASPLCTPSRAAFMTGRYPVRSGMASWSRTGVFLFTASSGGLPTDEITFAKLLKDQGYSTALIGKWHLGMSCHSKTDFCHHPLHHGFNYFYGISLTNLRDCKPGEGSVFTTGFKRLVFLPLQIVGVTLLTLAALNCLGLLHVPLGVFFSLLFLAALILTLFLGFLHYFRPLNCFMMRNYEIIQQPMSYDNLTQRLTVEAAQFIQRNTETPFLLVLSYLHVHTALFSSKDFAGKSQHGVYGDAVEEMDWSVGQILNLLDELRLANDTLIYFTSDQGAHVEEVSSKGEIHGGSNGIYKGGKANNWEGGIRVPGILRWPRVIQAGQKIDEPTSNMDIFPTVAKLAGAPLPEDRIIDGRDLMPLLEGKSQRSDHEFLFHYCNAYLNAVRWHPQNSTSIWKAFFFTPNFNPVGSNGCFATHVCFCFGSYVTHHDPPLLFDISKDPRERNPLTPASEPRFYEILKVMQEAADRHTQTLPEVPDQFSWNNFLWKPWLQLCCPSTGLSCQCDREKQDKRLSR
As to conditions: cited from earlier work.

Another data set relates to STS activity. From the text: The above effect is confirmed on functional biomarkers of STS activity for at least 84 days. As described before, STS converts sulphate precursors of estrogens. Thus, by inhibiting STS activity a reduction in serum levels of estrone and DHEA and an increase in estrone sulphate and DHEA sulphate are expected. This effect is described by baseline corrected fold-changes of the E1-S to E1 and DHEA-S to DHEA ratios over time (study days).

Data set [2] is described as follows: Serum hormonal profile (E2, P4, T, D4A) by ELISA. Format: in vivo, healthy pre-menopausal women. As to conditions: for mean concentration-time profiles for D4A / mean concentration-time profiles for T: after multiple dose administration; for E2 concentrations / P4 concentrations: mean concentration-time profile, suppression during the first cycle up to Day 29, normal increase on Day 43. On the technique in general: In an ELISA, binding on a coated surface is turned into a signal by an enzyme label.
Description: (§1) Blood samples were collected from each subject in order to determine pharmacodynamic parameters (sulfatase activity and hormonal profile).
(§2) STS activity was determined by spiking specimens with labelled EI-S and by measuring its conversion to E1 per gram protein under standardized incubation conditions using LC-MS/MS. Protein concentration was evaluated with a validated colorimetric assay (Bradford method). The serum samples for hormonal profile were analysed by specific and validated ELISA methods.

The nature of data set [3]: Follow-up effect on post-treatment menstruation cycles (ovarian and transvaginal ultrasound). The source says:
Menstruation cycle length was not influenced by the treatment. […] Sizes of right and left ovary differed slightly for each subject, but no clinically relevant changes were identified by the gynaecologists.

In data set [4] the target is T1, STS. The following applies: for AVG [%]: Average inhibition of Steroid Sulfatase in endometrium, Mean (SD), N = 8.
Description: (§3) Blood samples were collected from each subject in order to determine pharmacodynamic parameters (sulfatase activity and hormonal profile). Ovarian and endometrium transvaginal ultrasounds throughout the study and an endometrial biopsy were performed.
(§4) The biopsy was scheduled between 5 to 8 days before the anticipated onset of the next menstrual cycle after treatment and 1 month after treatment cessation.
(§5) STS activity was determined by spiking specimens with labelled EI-S and by measuring its conversion to E1 per gram protein under standardized incubation conditions using LC-MS/MS. Protein concentration was evaluated with a validated colorimetric assay (Bradford method).
The conditions of data set [5]: multiple doses of 4 mg E2MATE, 10 mg NETA, for 4 weeks.
Data set [6] deals with T1, STS. The following applies: cited from earlier work. This is another data set of the same source.
Data set [7] deals with T1, STS. Briefly: in vivo.
Description: as §3, §4, §5
Data set [8] deals with STS (Mus musculus, UniProt P50427). As to conditions: mice, cited from earlier work.
Chain of STS (Mus musculus, UniProt P50427) (P50427 23-624): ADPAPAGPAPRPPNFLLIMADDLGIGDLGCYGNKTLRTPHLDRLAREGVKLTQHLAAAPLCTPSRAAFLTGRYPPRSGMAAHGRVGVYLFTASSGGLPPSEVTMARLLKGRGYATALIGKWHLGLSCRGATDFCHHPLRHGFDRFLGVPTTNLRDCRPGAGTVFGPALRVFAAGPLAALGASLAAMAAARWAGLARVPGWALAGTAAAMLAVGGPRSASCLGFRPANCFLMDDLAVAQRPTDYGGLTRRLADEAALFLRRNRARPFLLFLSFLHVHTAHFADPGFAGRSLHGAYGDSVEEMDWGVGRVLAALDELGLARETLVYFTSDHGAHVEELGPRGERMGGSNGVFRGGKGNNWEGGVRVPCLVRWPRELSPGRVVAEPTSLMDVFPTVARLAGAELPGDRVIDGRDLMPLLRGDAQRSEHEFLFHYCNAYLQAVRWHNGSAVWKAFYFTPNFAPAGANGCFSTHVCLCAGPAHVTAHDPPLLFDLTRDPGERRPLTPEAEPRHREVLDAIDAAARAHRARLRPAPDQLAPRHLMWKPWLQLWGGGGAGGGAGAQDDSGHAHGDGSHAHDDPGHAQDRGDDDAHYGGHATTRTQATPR
Data set [9] deals with T1, STS. As to conditions: in vivo.
Description: as §1, §2
For data set [10], the target named is T1, STS. Briefly: STS activity in PBMCs (Phase I study, labelled E1-S conversion to E1, LC-MS/MS).
Description: as §1, §2
[11] abbreviates: maximum during the NETA treatment period (values of days 8 to 29).
[12] abbreviates: daily oral 0.5 or 1 mg/kg for 21 days, end of the treatment.

Regarding `NS(=O)(=O)Oc1ccc2c3c(c(=O)oc2c1)CCCCC3`, the “blocking STS activity in both eutopic and ectopic tissues” value on STS [1] is listed as “effective”.

As to `C[C@]12CC[C@@H]3c4ccc(OS(N)(=O)=O)cc4CC[C@H]3[C@@H]1CC[C@@H]2O` [E2MATE, Estradiol-3-o-sulfamate], the “Baseline relative change of the DHEA-S / DHEA [%]” value stood at 0% with STS activity (Day 1); 133% in the data set with STS activity (Day 8); 116% in the data set with STS activity (Day 15); 113% in the data set with STS activity (Day 22); 148% in the data set with STS activity (Day 29); 195% with STS activity (Day 57). The figures for the “Baseline relative change of the DHEA-S / DHEA [%]” value with STS activity (Day 85) and in the data set on STS activity (Day 113) were 232% and 175%, respectively. Moreover, the “Baseline relative change of the E1-S / E1 [%]” value was determined as 0% in the data set on STS activity (Day 1); 208% in the data set with STS activity (Day 8); 282% in the data set with STS activity (Day 15); 218% with STS activity (Day 22); 194% in the data set on STS activity (Day 29); 218% in the data set on STS activity (Day 57). The figures for the “Baseline relative change of the E1-S / E1 [%]” value in the data set on STS activity (Day 85) and with STS activity (Day 113) were 243% and 400%, respectively. Also, the “DHEA-S to DHEA ratios increased” value in the data set on STS activity (setting [11]) is recorded as “up to 265%”. In the data set with STS activity (setting [11]), the “baseline relative mean increases of the E1-S to E1 ratio” value was “up to 282%”. Moreover, in [2], the “mean concentration-time profiles for D4A” value is listed as “No relevant differences”. In data set [2], the “mean concentration-time profiles for T” value is “No relevant differences”. For the same compound, the E2 concentrations result in [2] is on record as “Normal mean concentration-time profiles”. In addition, the P4 concentrations entry in [2] is reported as “Normal mean concentration-time profiles”. Besides, the “effect on ovarian size” value in data set [3] is recorded as “no apparent effect”. For the same compound, the “AVG [%]” value at STS [4] was 66.6 (2.7) %. Moreover, the “AVG (average effect over time (AUC))” value on STS [4] (STS inhibition in endometrium samples) amounted to 66.60%. Further, the After treatment on STS [4] (STS inhibition in endometrium samples, second row of Table 2) turned out to be 87.50%. Besides, the tolerability entry in data set [5] is “well tolerated”. The STS inhibitor activity entry at STS [6] is on record as “active STS inhibitors”. Further, on STS [7] (read-out: Emax (maximal observed effect)), the Emax (in general, the greatest response seen or fitted, relative to the assay's reference) was 91%. At STS [7] (read-out: STS inhibition in endometrium), the inhibition (as a rule, the relative decrease from the control value, in per cent) at 4 mg was 91%. In addition, at STS [8] (setting [12]), the “lesion weight and size” value is reported as “decreased”. The number of lesions entry at STS [8] (setting [12]) is recorded as “without a reduction”. Moreover, at STS [8] (daily oral dose, highest dose (1 mg/kg) for 21 days), the “STS activity inhibition in the uterus or in induced lesions” value was at most 36%.

Regarding `C[C@]12CC[C@@H]3c4ccc(OS(N)(=O)=O)cc4CC[C@H]3[C@@H]1CCC2=O` [EMATE, Estrone-3-o-sulfamate], the STS inhibitor activity result at STS [6] was “active STS inhibitors”.

As for `C#C[C@]1(OC(C)=O)CC[C@H]2[C@@H]3CCC4=CC(=O)CC[C@@H]4[C@H]3CC[C@@]21C` [NETA, norethindrone acetate, reference compound], in data set [2], the “mean concentration-time profiles for D4A” value was “No relevant differences”, the “mean concentration-time profiles for T” value is recorded as “No relevant differences”, the E2 concentrations entry is given as “suppressed” and the P4 concentrations result is given as “suppressed”. Moreover, in data set [3], the “effect on ovarian size” value is listed as “no apparent effect”. The compound also came in with an inhibition at STS [9] of 12%. For the same compound, the “AVG [%]” value on STS [4] is listed as 14.9 (27.0) %. Besides, the Emax on STS [7] is 46.7%. The average inhibition at STS [10] is 4%.
